# From patent EP4353711A1, “QUINOLIN-2-YL NITRONES FOR THE TREATMENT AND PREVENTION OF STROKE” (Consejo Superior De Investigaciones Científicas, priority 2022, dated 2024)
# Tested on: male C57BL/6J mice
# Test: pMCAO stroke model, infarct volume by T2-weighted MRI
# Assay type: in vivo
# Settings: 85 mg/kg QN11 intraperitoneally 15 min after arterial ligature
# Procedure: To study of the effects of QN11 on stroke recovery, administration of the vehicle and QN11 molecule was performed intraperitoneally, to 8-week-old male C57BL/6J mice (Harlan) weighing 25-30 g. All procedures with animals were carried out under a protocol approved by the Ethical Committee of the Spanish National Research Council (CSIC), and recommendations of the European Council. A special effort was made to keep to a minimum necessary the number of animals to achieve adequate significance. For surgery, anaesthesia induction was carried out with 3% isoflurane (in 70% N2O, 30% O2), followed by 2% isoflurane for maintenance during stroke procedure. Rectal temperature was maintained at 36.5 °C with the use of a heating pad. The common branch of the middle cerebral artery was, after craniotomy, exposed and occluded permanently by suture ligation. To ensure a complete artery occlusion during surgery, cortical blood flow was monitored by non-invasive laser Doppler flowmetry, as a quality control, with the aid of a Perimed equipment (PeriFlux System 5000 Stroke Model Monitor, Perimed, Järfälla, Sweden). […] Animals subjected to surgery for longer than 15 min were excluded of the study. Physiological parameters were maintained. […]
# MRI is the most commonly used diagnostic tool for stroke. […] All MRI data was analysed using ImageJ software. […]
smiles,measurement,setting,value
"[O-]/[N+](=C\c1ccc2cccc(O)c2n1)Cc1ccccc1 [QN11, (Z)-N-Benzyl-1-(8-hydroxyquinolin-2-yl)methanimine oxide]",reduction in the percentage of brain infarct volume,"MRI 48 h after pMCAO, compared with vehicle-treated animals (group b)","74,47%"
same,infarct volume with regard to the whole brain volume,"T2WI MRI 48 h after pMCAO, vehicle group b 2.453 %",0.6262%
